Measurements taken from PubChem BioAssay (NCI).
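GI50: concentration for 50% inhibition of growth. TGI marks complete inhibition of growth.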

Assays:
Assay in all cases: DTP human tumour cell line panel, 384-well format; in the data active means GI50 below about 0.43 µM; inactive means the rest
[1] = test system: IGROV1 ovarian
[2] = test system: SW-620 colon
[3] = test system: SN12C renal
[4] = test system: NCI/ADR-RES ovarian
[5] = test system: CCRF-CEM leukemia
[6] = test system: SK-OV-3 ovarian
[7] = test system: OVCAR-8 ovarian
[8] = test system: COLO 205 colon
[9] = test system: SNB-19 CNS
[10] = test system: RPMI-8226 leukemia
[11] = test system: U251 glioblastoma
[12] = test system: KM12 colon
[13] = test system: PC-3 prostate
[14] = test system: HT29 colon
[15] = test system: SR leukemia
[16] = test system: SF-268 CNS
[17] = test system: NCI-H226 lung
[18] = test system: NCI-H322M lung
[19] = test system: SK-MEL-5 melanoma
[20] = test system: HCT-15 colon
[21] = test system: UACC-62 melanoma
[22] = test system: M14 melanoma
[23] = test system: DU-145 prostate
[24] = test system: UACC-257 melanoma
[25] = test system: BT-549 breast
[26] = test system: SK-MEL-28 melanoma
[27] = test system: NCI-H460 NSCLC
[28] = test system: SK-MEL-2 melanoma
[29] = test system: MDA-MB-435 melanoma
[30] = test system: HOP-62 NSCLC
[31] = test system: MDA-MB-468 breast
[32] = test system: EKVX NSCLC
[33] = test system: LOX IMVI melanoma
[34] = test system: UO-31 renal
[35] = test system: TK-10 renal
[36] = test system: OVCAR-4 ovarian
[37] = test system: T-47D breast
[38] = test system: SF-539 CNS
[39] = test system: HOP-92 NSCLC
[40] = test system: ACHN renal
[41] = test system: HS 578T breast
[42] = test system: SNB-75 CNS
[43] = test system: A498 renal
[44] = test system: A549 NSCLC
[45] = test system: MCF7 breast
[46] = test system: OVCAR-3 ovarian
[47] = test system: OVCAR-5 ovarian

COCc1c(-c2cc3cc(C)cc(OC)c3s2)c2c(N)ncnn2c1CN1CCNC(=O)C1
7.39 µM: TGI [31]
12.9 µM: TGI [15]
7.59 µM: TGI [10]
5.45 µM: TGI [25]
> 79.5 µM: TGI [47]
40.5 µM: TGI [43]
> 23.1 µM: TGI [2]
> 73.6 µM: TGI [3]
inactive: GI50 [1] 4.19 µM | GI50 [2] 3.27 µM | GI50 [3] 7.95 µM | GI50 [4] > 100 µM | GI50 [5] 5.68 µM | GI50 [6] 2.4 µM | GI50 [7] 17.8 µM | GI50 [8] 12 µM | GI50 [9] 18.5 µM | GI50 [10] 1.87 µM | GI50 [11] 12.1 µM | GI50 [12] 9.87 µM | GI50 [13] 23.2 µM | GI50 [14] 12 µM | GI50 [15] 3.97 µM | GI50 [16] 8.67 µM | GI50 [17] 1.26 µM | GI50 [18] 3.89 µM | GI50 [19] 7.29 µM | GI50 [20] 5.39 µM | GI50 [21] 6.36 µM | GI50 [22] 4.75 µM | GI50 [23] 6.79 µM | GI50 [24] 29.9 µM | GI50 [26] 28.7 µM | GI50 [27] 4.62 µM | GI50 [28] 4.38 µM | GI50 [29] 11.8 µM | GI50 [30] 12.8 µM | GI50 [31] 2.01 µM | GI50 [32] 5.72 µM | GI50 [33] 5.57 µM | GI50 [34] 9.39 µM | GI50 [35] 7.97 µM | GI50 [36] 13.9 µM | GI50 [37] 15.1 µM | GI50 [38] 6.08 µM | GI50 [39] 2 µM | GI50 [40] 6.15 µM | GI50 [41] 3.76 µM | GI50 [42] 1.63 µM | GI50 [43] 3.32 µM | GI50 [44] 5.49 µM | GI50 [45] 5.56 µM | GI50 [46] 5.38 µM | GI50 [47] 10.3 µM
37 µM: TGI [21]
active: GI50 [25] 0.385 µM
> 94.7 µM: TGI [37]
22.4 µM: TGI [41]
70.3 µM: TGI [35]
> 69.8 µM: TGI [32]
31.3 µM: TGI [19]
> 52.5 µM: TGI [5]
> 75.2 µM: TGI [46]
25.6 µM: TGI [33]
21.7 µM: TGI [17]
> 100 µM: TGI [4] | TGI [7] | TGI [8] | TGI [9] | TGI [11] | TGI [12] | TGI [13] | TGI [14] | TGI [20] | TGI [23] | TGI [24] | TGI [26] | TGI [30] | TGI [34] | TGI [36] | TGI [40] | TGI [44] | TGI [45]
13.6 µM: TGI [28]
> 58.3 µM: TGI [38]
18.9 µM: TGI [39]
20.5 µM: TGI [42]
41 µM: TGI [22]
8.99 µM: TGI [6]
> 81.6 µM: TGI [16]
> 96.2 µM: TGI [27]
36.8 µM: TGI [1] | TGI [18]
72.2 µM: TGI [29]
